The text below walks through data of patent publication EP2878592B1, “SYNTHESIS OF AMIDE DERIVATIVES OF SOME NONSTEROIDAL ANTIINFLAMMATORY DRUGS AS POTENTIAL PRO-DRUGS” (Kücükgüzel, Ilkay, priority 2013, dated 2015).

The structures appear in SMILES notation.

A short description of data set [1]: Partition coefficient (log P) study, chloroform / buffer, HPLC. The data set is classed as physicochemical. Conditions: 37°C, 24 hours. As to the method: 20 mg of amide compound is dissolved in 20 ml of chloroform. 10 mL of this mixture is drawn out (divided into two). This 10 ml of mixture is added to 20 ml with pH 1.2 buffer solution. Likewise the other 10 ml of mixture is added to 20 ml with pH 6.8 buffer solution. The tubes placed in a 37°C incubator are mixed for 24 hours.
After 24 hours the chloroform phase was removed and transferred to separate tubes. The chloroform is evaporated. After evaporation of chloroform, 10 mL of ACN is added and thoroughly mixed. 0.1 ml of the sample is taken out of the mixture with ACN and this sample is added to 10 ml with the mobile phase (S1, S2, S3) (Cn=1ug/ml)
The standard samples used in this study were prepared according to the method of preparation of standard samples given above.
• HPLC Column Type: ACE C18 reverse phase. • Flow Rate: 1 ml/min. • Wavelength: 210 nm

For data set [2] the following is noted: compared with ibuprofen, equimolar doses; cited from earlier work.
For data set [3] the following is noted: compared with the ibuprofen molecule; cited from earlier work.
Setting [4] is: pH 1.2 buffer solution / chloroform.
Setting [5] is: pH 6.8 buffer solution / chloroform.

As to `C[C@H](C(=O)NC(CO)(CO)CO)c1cccc(C(=O)c2ccccc2)c1` [Compound 1b, (+)-(2S)-2-(3-Benzoylphenyl)-N-[1,3-dihydroxy-2-(hydroxymethyl)propan-2-yl]propanamide], the figures for the “Log P (Experimental result)” value in data set [1] (setting [4]) and in data set [1] (setting [5]) were -0.05 and “+0.05”, respectively.

For `CC(C)Cc1ccc(C(C)C(=O)NC(CO)(CO)CO)cc1` (centres unmarked) [Compound 2b, N-[1,3-dihydroxy-2-(hydroxmethyl)propan-2-yl]-2-(4-isobutylphenyl)propanamide], the “Log P (Experimental result)” value is -0.12 in data set [1] (setting [4]) and -0.41 in data set [1] (setting [5]).

`CC(C(=O)NC(CO)(CO)CO)c1ccc(-c2ccccc2)c(F)c1` (centres unmarked) [Compound 3b, N-[1,3-Dihydroxy-2-(hydroxymethyl)propan-2-yl]-2-(2-fluorobiphenyl-4-yl)propanamide]: the “Log P (Experimental result)” value in data set [1] (setting [4]) was -0.14; in data set [1] (setting [5]), -0.95.

Take `COc1ccccc1OC(=O)C(C)c1ccc(CC(C)C)cc1` (centres unmarked) [guiacol ester of ibuprofen]: the “effect in relieving edema and in lowering fever” value in data set [2] is given as “same effect”. In data set [3], the “gastrointestinal and acute toxicities” value is “much lower”.
